{
  "source": "patent US10501498B2",
  "about": "(BGI SHENZHEN, priority 2014, dated 2019)",
  "test_system": "HVA calcium channel",
  "format": "cell-based, rat",
  "data": [
    {"smiles": "COC(=O)C1=C(C)NC(C)=C(C(=O)OC)C1c1ccccc1[N+](=O)[O-]", "note": "[Nifedipine, reference compound]", "values": [
      {"measurement": "current after loading", "result": "−734.31", "unit": "pA"},
      {"measurement": "inhibition rate", "setting": "10 µM", "result": 50.09, "unit": "%"}
    ]}
  ]
}
